Publication PMC2665923 (Journal of medicinal chemistry, 2009)
“Also recorded” adds a separate entry of the source.

Key:
Storage stability at rt = assay type: physicochemical; conditions: few weeks at rt
[1] = tested on: GSK-3β activity (phosphorylation of glycogen synthase); test: Western immunoblot of glycogen synthase phosphorylation in cells; assay type: cell-based; conditions: BXPC3, 5 and 26 at 5 μM, 6-36 h, 27 at 5, 10, 20 μM
[2] = tested on: NFκB-mediated expression of XIAP; test: Western immunoblot of XIAP expression; assay type: cell-based; conditions: BXPC3; 5 and 26 at 5 μM; 27 up to 20 μM
[3] = tested on: pancreatic cancer cells (MiaPaCa-2, BXPC3, HupT3); test: Pancreatic cancer cell proliferation; assay type: cell-based; conditions: for antiproliferative activity in pancreatic cancer cells: MiaPaCa-2, BXPC3, HupT3
[4] = tested on: BXPC3 and HupT3 pancreatic cancer cells; test: Apoptosis by Hoechst staining; assay type: cell-based; conditions: 5 (5 μM), 26 (5 μM), 27 (20 μM), 36 h
[5] = tested on: pancreatic cancer cells (MiaPaCa-2, BXPC3, HupT3); conditions: BXPC3, HupT3 and MiaPaCa-2; shown earlier; cited from earlier work

Cn1cc(C2=C(c3coc4cc(O)ccc34)C(=O)NC2=O)c2cc(F)ccc21 [Compound 4, 3-(5-Fluoro-1-methyl-1H-indol-3-yl)-4-(6-hydroxy-benzofuran-3-yl)-pyrrole-2,5-dione]
stability on storage (Storage stability at rt): Partially degradated after few weeks at rt

COc1cccc2c(C3=C(c4cn(C)c5cc(I)c(F)cc45)C(=O)NC3=O)coc12 [Compound 5, 3-(5-Fluoro-6-iodo-1-methyl-1H-indol-3-yl)-4-(7-methoxy-benzofuran-3-yl)-pyrrole-2,5-dione]
GSK-3β activity in cells (GS phosphorylation) [1]: effectively inhibited | NFκB-mediated expression of XIAP [2]: pronounced decrease | antiproliferative activity in pancreatic cancer cells [3]: good antiproliferative activity | concentrations showing significant anticancer activity ([3]; pancreatic cancer cells): 1 to 5 µM | apoptosis / survival of pancreatic cancer cells [4]: significant apoptosis

Cn1cc(C2=C(c3coc4ccccc34)C(=O)NC2=O)c2cc(F)c(Cl)cc21 [Compound 6, 3-Benzofuran-3-yl-4-(6-chloro-5-fluoro-1-methyl-1H-indol-3-yl)-pyrrole-2,5-dione]
antiproliferative activity in pancreatic cancer cells [3]: good antiproliferative activity

COc1cccc2c(C3=C(c4cn(C)c5cc(Cl)c(F)cc45)C(=O)NC3=O)coc12 [Compound 11, 3-(6-Chloro-5-fluoro-1-methyl-1H-indol-3-yl)-4-(7-methoxy-benzofuran-3-yl)-pyrrole-2,5-dione]
antiproliferative activity in pancreatic cancer cells [3]: good antiproliferative activity

Cn1cc(C2=C(c3coc4ccccc34)C(=O)NC2=O)c2cc(Br)ccc21 [Compound 13]
antiproliferative activity in pancreatic cancer cells [3]: little or no inhibitory activity

C#CCOc1ccc2c(C3=C(c4cn(C)c5ccc(Br)cc45)C(=O)NC3=O)coc2c1 [Compound 16, 3-(5-Bromo-1-methyl-1H-indol-3-yl)-4-(6-prop-2-ynyloxy-benzofuran-3-yl)-pyrrole-2,5-dione]
stability on storage (Storage stability at rt): Partially degradated after few weeks at rt

COc1cccc2c(C3=C(c4cn(C)c5c(Br)cc(Br)cc45)C(=O)NC3=O)coc12 [Compound 20, 3-(5,7-Dibromo-1-methyl-1H-indol-3-yl)-4-(7-methoxy-benzofuran-3-yl)-pyrrole-2,5-dione]
antiproliferative activity in pancreatic cancer cells [3]: good antiproliferative activity

Cn1cc(C2=C(c3coc4ccccc34)C(=O)NC2=O)c2cc(I)ccc21 [Compound 21, 3-Benzofuran-3-yl-4-(5-iodo-1-methyl-1H-indol-3-yl)-pyrrole-2,5-dione]
antiproliferative activity in pancreatic cancer cells [3]: little or no inhibitory activity

Cn1cc(C2=C(c3coc4ccc(F)cc34)C(=O)NC2=O)c2cc(I)ccc21 [Compound 22, 3-(5-Fluoro-benzofuran-3-yl)-4-(5-iodo-1-methyl-1H-indol-3-yl)-pyrrole-2,5-dione]
antiproliferative activity in pancreatic cancer cells [3]: little or no inhibitory activity

Cn1cc(C2=C(c3coc4ccc(F)cc34)C(=O)NC2=O)c2cc(C#CC3CC3)ccc21 [Compound 25, 3-(5-Cyclopropylethynyl-1-methyl-1H-indol-3-yl)-4-(5-fluoro-benzofuran-3-yl)-pyrrole-2,5-dione]
antiproliferative activity in pancreatic cancer cells [3]: little or no inhibitory activity

Cn1cc(C2=C(c3coc4ccc(F)cc34)C(=O)NC2=O)c2cc3c(cc21)OCO3 [Compound 26, 3-(5-Fluoro-benzofuran-3-yl)-4-(5-methyl-5H-[1,3]dioxolo[4,5-f]indol-7-yl)-pyrrole-2,5-dione]
GSK-3β activity in cells (GS phosphorylation) [1]: effectively inhibited | NFκB-mediated expression of XIAP [2]: pronounced decrease | antiproliferative activity in pancreatic cancer cells [3]: good antiproliferative activity | apoptosis / survival of pancreatic cancer cells [4]: significant apoptosis

COc1cc2c(C3=C(c4coc5ccccc45)C(=O)NC3=O)cn(C)c2cc1Cl [Compound 27, 3-Benzofuran-3-yl-4-(6-chloro-5-methoxy-1-methyl-1H-indol-3-yl)-pyrrole-2,5-dione]
GSK-3β activity in cells (GS phosphorylation) [1]: did not affect | NFκB-mediated expression of XIAP [2]: no such effect | antiproliferative activity in pancreatic cancer cells [3]: did not affect; also recorded: little or no inhibitory activity | apoptosis / survival of pancreatic cancer cells [4]: did not affect

COCc1cccc2c(C3=C(c4coc5ccccc45)C(=O)NC3=O)cn(C)c12 [Compound 33, 3-Benzofuran-3-yl-4-(7-methoxymethyl-1-methyl-1H-indol-3-yl)-pyrrole-2,5-dione]
antiproliferative activity in pancreatic cancer cells [3]: little or no inhibitory activity

COc1ccc(CNC(=O)Nc2ncc([N+](=O)[O-])s2)cc1 [Compound 77]
pancreatic cancer cell proliferation [5]: significant decrease

Cn1cc(C2=C(c3ccc(Cl)cc3Cl)C(=O)NC2=O)c2ccccc21 [Compound 78]
pancreatic cancer cell proliferation [5]: significant decrease
